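Grown in 96-well plates, cells were treated for 48 hours with each compound at five concentrations. Insufficient inhibition: endpoint recorded as highest concentration tested. TGI marks complete inhibition of growth.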
Key:
Experiment in all cases: NCI tumour cell line growth inhibition, 48 h
[1] = test system: OVCAR-5 ovarian
[2] = test system: T-47D breast
[3] = test system: RPMI-8226 leukemia
[4] = test system: RXF 393 renal
[5] = test system: EKVX NSCLC
[6] = test system: A498 renal
[7] = test system: HS 578T breast
[8] = test system: SK-MEL-5 melanoma
[9] = test system: CAKI-1 renal
[10] = test system: HOP-62 NSCLC
[11] = test system: UO-31 renal
[12] = test system: SK-MEL-28 melanoma
[13] = test system: SK-MEL-2 melanoma
[14] = test system: HOP-92 NSCLC
[15] = test system: MDA-MB-231 breast
[16] = test system: MDA-MB-435
[17] = test system: 786-0 renal
[18] = test system: UACC-62 melanoma
[19] = test system: SF-295 CNS
[20] = test system: DU-145 prostate
[21] = test system: CCRF-CEM leukemia
[22] = test system: MALME-3M melanoma
[23] = test system: SW-620 colon
[24] = test system: TK-10 renal
[25] = test system: SN12C renal
[26] = test system: SNB-75 CNS
[27] = test system: UACC-257 melanoma
[28] = test system: HT29 colon
[29] = test system: NCI/ADR-RES ovarian
[30] = test system: NCI-H226 lung
[31] = test system: MDA-N
[32] = test system: BT-549 breast
[33] = test system: SNB-19 CNS
[34] = test system: SF-268 CNS
[35] = test system: LOX IMVI melanoma
[36] = test system: HCT-15 colon
[37] = test system: SK-OV-3 ovarian
[38] = test system: MCF7 breast
[39] = test system: HCT-116 colon
[40] = test system: ACHN renal
[41] = test system: IGROV1 ovarian
[42] = test system: M14 melanoma
[43] = test system: OVCAR-8 ovarian
[44] = test system: MOLT-4 leukemia
[45] = test system: NCI-H23 lung
[46] = test system: OVCAR-4 ovarian
[47] = test system: HCC-2998 colon
[48] = test system: A549 NSCLC
[49] = test system: PC-3 prostate
[50] = test system: COLO 205 colon
[51] = test system: OVCAR-3 ovarian
[52] = test system: K-562 leukemia
[53] = test system: KM12 colon
[54] = test system: U251 CNS
[55] = test system: NCI-H522 lung
[56] = test system: NCI-H460 lung
[57] = test system: SF-539 CNS
[58] = test system: HL-60(TB) leukemia

## Cc1ccsc1/C=N/Nc1ccccn1
[1]
  TGI: > 100 µM
[2]
  TGI: > 100 µM
[3]
  TGI: 56.6 µM
[4]
  TGI: > 100 µM
[5]
  TGI: 96.5 µM
[6]
  TGI: > 100 µM
[7]
  TGI: > 100 µM
[8]
  TGI: 54.4 µM
[9]
  TGI: > 100 µM
[10]
  TGI: > 100 µM
[11]
  TGI: > 100 µM
[12]
  TGI: > 100 µM
[13]
  TGI: > 100 µM
[14]
  TGI: > 100 µM
[15]
  TGI: > 100 µM
[16]
  TGI: > 100 µM
[17]
  TGI: > 100 µM
[18]
  TGI: > 100 µM
[19]
  TGI: > 100 µM
[20]
  TGI: > 100 µM
[21]
  TGI: > 100 µM
[22]
  TGI: > 100 µM
[23]
  TGI: > 100 µM
[24]
  TGI: > 100 µM
[25]
  TGI: > 100 µM
[26]
  TGI: > 100 µM
[27]
  TGI: > 100 µM
[28]
  TGI: > 100 µM
[29]
  TGI: > 100 µM
[30]
  TGI: > 100 µM
[31]
  TGI: > 100 µM
[32]
  TGI: > 100 µM
[33]
  TGI: > 100 µM
[34]
  TGI: > 100 µM
[35]
  TGI: > 100 µM
[36]
  TGI: > 100 µM
[37]
  TGI: > 100 µM
[38]
  TGI: > 100 µM
[39]
  TGI: > 100 µM
[40]
  TGI: > 100 µM
[41]
  TGI: > 100 µM
[42]
  TGI: > 100 µM
[43]
  TGI: > 100 µM
[44]
  TGI: 73.9 µM
[45]
  TGI: > 100 µM
[46]
  TGI: > 100 µM
[47]
  TGI: > 100 µM
[48]
  TGI: > 100 µM
[49]
  TGI: > 100 µM
[50]
  TGI: > 100 µM
[51]
  TGI: > 100 µM
[52]
  TGI: > 100 µM
[53]
  TGI: > 100 µM
[54]
  TGI: > 100 µM

## O=C(CC(=O)Nc1ccccc1Cl)NNC(Sc1ccccc1)c1cc(N=Nc2ccc(Br)cc2)ccc1O (configuration not stated)
[1]
  TGI: > 10 µM
[2]
  TGI: 9.57 µM
[3]
  TGI: > 10 µM
[4]
  TGI: 5.82 µM
[5]
  TGI: > 10 µM
[6]
  TGI: 5.6 µM
[7]
  TGI: 7.18 µM
[8]
  TGI: 3.95 µM
[55]
  TGI: > 10 µM
[9]
  TGI: 7.19 µM
[10]
  TGI: 8.67 µM
[11]
  TGI: 3.96 µM
[12]
  TGI: > 10 µM
[13]
  TGI: > 10 µM
[14]
  TGI: 6.68 µM
[15]
  TGI: 8.68 µM
[16]
  TGI: > 10 µM
[17]
  TGI: 2.42 µM
[18]
  TGI: 3.9 µM
[19]
  TGI: 8.39 µM
[20]
  TGI: > 10 µM
[21]
  TGI: 6.21 µM
[22]
  TGI: 8.73 µM
[23]
  TGI: 2.77 µM
[24]
  TGI: 9.08 µM
[25]
  TGI: > 10 µM
[26]
  TGI: > 10 µM
[27]
  TGI: > 10 µM
[28]
  TGI: > 10 µM
[29]
  TGI: 5.61 µM
[30]
  TGI: 6.04 µM
[31]
  TGI: > 10 µM
[32]
  TGI: 5.99 µM
[33]
  TGI: > 10 µM
[34]
  TGI: > 10 µM
[35]
  TGI: 3.15 µM
[36]
  TGI: > 10 µM
[56]
  TGI: 2.86 µM
[37]
  TGI: > 10 µM
[38]
  TGI: 3.22 µM
[57]
  TGI: 3.8 µM
[39]
  TGI: 1.31 µM
[40]
  TGI: > 10 µM
[41]
  TGI: 5.53 µM
[42]
  TGI: 2.68 µM
[43]
  TGI: 2.39 µM
[44]
  TGI: 1.75 µM
[45]
  TGI: 7.39 µM
[46]
  TGI: 5.98 µM
[47]
  TGI: > 10 µM
[48]
  TGI: > 10 µM
[49]
  TGI: 6.21 µM
[50]
  TGI: > 10 µM
[51]
  TGI: 2.91 µM
[52]
  TGI: 6.63 µM
[58]
  TGI: 1.1 µM
[53]
  TGI: 5.04 µM
[54]
  TGI: 8.26 µM

From PubChem BioAssay (NCI)
